Data on 3 molecules can be found in patent US10935540B2, “GDF-15 as a haematological toxicity biomarker” (Novartis AG, priority 2015, dated 2021).

The subject of one series is thrombopoesis. The settings on record: previous studies; cited from earlier work.
A further series concerns animal model. The settings on record: cited from earlier work.
Series [1] deals with patients with liposarcomas. The following applies: cited from earlier work.
Another series relates to patients. The series can be described thus: Clinical analysis of serum GDF-15 (ELISA) versus platelet counts in patients treated with Compound A. It is filed as in vivo, human. The settings on record: 21 patients, continuous three times weekly oral administration; preliminary analysis (FIG. 3). As to the method:
Patients were treated with (5)-1-(4-Chloro-phenyl)-7-isopropoxy-6-methoxy-2-(4-{methyl-[4-(4-methyl-3-oxo-piperazin-1-yl)-trans-cyclohexylmethyl]-amino}-phenyl)-1,4-dihydro-2H-isoquinolin-3-one (Compound A). Dose range was from 10 to 500 mg three times a week (3QW) with continuous or 2 week on 1 week off dosing regimen. Serum samples were collected from each subject at pre-dose and from 0.5 to 6 h post-dose on the first treatment day.
The serum level of GDF-15 expression was measured using enzyme-linked immunosorbent assay (ELISA; R&D Systems kit DGD150).
Clinical data (including platelet counts) were collected from all patients during the course of the treatment period.
Maximum observation period was 448 days on available platelet data.
A preliminary data analysis of (S)-1-(4-Chloro-phenyl)-7-isopropoxy-6-methoxy-2-(4-{methyl-[4-(4-methyl-3-oxo-piperazin-1-yl)-trans-cyclohexylmethyl]-amino}-phenyl)-1,4-dihydro-2H-isoquinolin-3-one effect on GDF-15 and platelet counts for 21 patients treated on a continuous three times weekly oral administration of (S)-1-(4-Chloro-phenyl)-7-isopropoxy-6-methoxy-2-(4-{methyl-[4-(4-methyl-3-oxo-piperazin-1-yl)-trans-cyclohexylmethyl]-amino}-phenyl)-1,4-dihydro-2H-isoquinolin-3-one was conducted. The conducted data analysis is represented in a plot on FIG. 3. In this plot, each point represents an individual patient. […]

In series [2] the test system is patients with solid tumors. The series can be described thus: Maximum change of platelet and neutrophil count versus GDF-15 fold change in patients with solid tumors receiving compound of formula I. It is filed as in vivo, human. The settings on record: regimen 1A (q3w) 12.5-350 mg or regimen 1B 120 mg. The method, then: Maximum change of platelet count (FIG. 7) and neutrophil count (FIG. 8) and the GDF-15 values were determined for patients with solid tumors receiving compound of formula I, i.e. (S)-5-(5-Chloro-1-methyl-2-oxo-1,2-dihydro-pyridin-3-yl)-6-(4-chloro-phenyl)-2-(2,4-dimethoxy-pyrimidin-5-yl)-1-isopropyl-5,6-dihydro-1H-pyrrolo[3,4-d]imidazol-4-one, on the first day of a three week cycle (herein also referred to as regimen 1A or q3w) in doses of 12.5 mg (A), 25 mg (B), 50 mg (C), 100 mg (D), 200 mg (E), 250 mg (F), 350 mg(G) or on the first and eighth day of a 4 week cycle (herein also referred to as regimen 1B) in a dose of 120 mg (I). The left graphs show the maximum platelet count change vs. GDF-15 fold change, the GDF-15 being measured on day 1 of the first cycle (C1D1). The right graphs show the maximum platelet count change vs. GDF-15 fold change.
The platelet/neutrophil count was determined before receipt of first dose (baseline) and on day 1, 7 and 15 of the first and second cycle for regimen 1A (A-G) or on day 1, 8, 14, 22 of the first and second cycle for regimen 1B (I) and the maximum platelet change value in comparison to the baseline was selected. The “Change of platelet/neutrophile counts” value is calculated as post-baseline value minus baseline value and given in number of platelets/neutrophils per microliter of blood. […]

Consider `CCOc1cc(C(C)(C)C)ccc1C1=N[C@@](C)(c2ccc(Cl)cc2)[C@@](C)(c2ccc(Cl)cc2)N1C(=O)N1CCN(CCCS(C)(=O)=O)CC1` [RG7112], for which the effect on thrombopoesis result in the series on thrombopoesis was “impairs thrombopoesis”. In the series on animal model, the “time course of drug-induced thrombocytopenia” value is “occurred rather late during the treatment period and persisted after drug discontinuation”. For the same molecule, the major dose-limiting toxicity result in series [1] (RG7112 administration) is recorded as “thrombocytopenia”. Moreover, the “patients with induced thrombocytopenia” value in series [1] (single-agent RG-7112, patients with liposarcomas) is 40 % of patients.

On to `COc1cc2c(cc1OC(C)C)[C@H](c1ccc(Cl)cc1)N(c1ccc(N(C)C[C@H]3CC[C@H](N4CCN(C)C(=O)C4)CC3)cc1)C(=O)C2` [Compound A, (S)-1-(4-Chloro-phenyl)-7-isopropoxy-6-methoxy-2-(4-{methyl-[4-(4-methyl-3-oxo-piperazin-1-yl)-trans-cyclohexylmethyl]-amino}-phenyl)-1,4-dihydro-2H-isoquinolin-3-one], for which, in the series on patients, the “cycle 1 day 1 GDF-15 increase from baseline associated with a higher occurrence of platelet counts dropping below 150 G/L (grade 1 thrombocytopenia CTCAE V4)” value is “more than 25%”.

For `COc1ncc(-c2nc3c(n2C(C)C)[C@H](c2ccc(Cl)cc2)N(c2cc(Cl)cn(C)c2=O)C3=O)c(OC)n1` [compound of formula I, (S)-5-(5-Chloro-1-methyl-2-oxo-1,2-dihydro-pyridin-3-yl)-6-(4-chloro-phenyl)-2-(2,4-dimethoxy-pyrimidin-5-yl)-1-isopropyl-5,6-dihydro-1H-pyrrolo[3,4-d]imidazol-4-one], the “correlation of GDF-15 increase with platelet count change” value in series [2] (seen already for GDF-15 C1D1 24 h post-dose (FIG. 7)) was “correlates with a decrease”. Also, in series [2] (seen already for GDF-15 C1D1 24 h post-dose (FIG. 8)), the “correlation of GDF-15 increase with neutrophil count change” value is “correlates with a decrease”.
